PubChem BioAssay (NCI)
Several values for one entry are separate records, joined by “and”; a condition that tells them apart may be missing. Equal values may be shown once.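 Step 1: Grow cells in 96-well plates. Step 2: Expose to compound for 48 hours at 5 concentrations. Step 3: Interpolate endpoints linearly; if unreached, use highest concentration. GI50 marks 50% less growth. The concentration for full growth arrest is given as TGI.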

System: MDA-MB-468 breast
Experiment: growth of human tumour cells (NCI), 48 h

SMILES: C=C1CC[C@@H]2C(C)(C)[C@@H](O)CC[C@@]2(C)[C@@H]1COc1ccc2ccc(=O)oc2c1
- GI50: 6.36 µM
- TGI: 25.9 µM

SMILES: O=C1NC(=NCc2cccs2)SC1Cc1ccc2ncccc2c1 (centres undefined)
- GI50: 11.8 µM
- TGI: > 25 µM

SMILES: N#Cc1ccc(Oc2nccc(-c3c(-c4ccc(F)cc4)ncn3C3CCNCC3)n2)cc1
- GI50: 5.91 µM
- TGI: > 25 µM

SMILES: O=C(CCCn1c2c(sc3ncccc32)c(=O)n2nnc(-c3ccccc3)c12)NCCc1cnc[nH]1
- GI50: 8.06 µM
- TGI: 27.4 µM

SMILES: CCNC(=O)Oc1ccc(/C(=C(/C)c2ccccc2)c2ccc(OCCN3CCCCCC3)cc2)cc1
- GI50: 2.06 µM
- TGI: 5.63 µM

SMILES: Cc1ccc(/C=C(\C#N)n2nnc3cc(Cl)c(Cl)cc32)cc1
- GI50: 2.4 µM
- TGI: 6.65 µM

SMILES: CSc1ccc2c(c1)c(CCN)c(C)n2Cc1ccc(Cl)c(Cl)c1
- GI50: 1.78 µM
- TGI: 3.47 µM

SMILES: O=C1C2=C(C(=O)c3c(O)ccc(O)c31)N(c1ccc(N3CCOCC3)nc1)Cc1ccccc1O2
- GI50: 0.217 µM
- TGI: 0.516 µM

SMILES: Cc1cccc(CN(C)c2ccc(CO)c(Cl)c2)c1
- GI50: 0.0572 µM
- TGI: 0.176 µM

SMILES: Fc1ccc(-c2nc(-c3nc4ccc(Cl)cc4[nH]3)cc3c2[nH]c2ccccc23)cc1
- GI50: 2.43 µM
- TGI: 11.5 µM

SMILES: N/C(=N\O)c1ncc(-c2ccc(C(F)(F)F)cc2)c(NC2CCCCCC2)n1
- GI50: 8.27 µM and 3.63 µM
- TGI: 17.9 µM

SMILES: O=S(=O)(NCCNc1nccc(-c2c(-c3cccc(O)c3)nc3sccn23)n1)c1ccc(F)cc1
- GI50: 2.62 µM
- TGI: 24.2 µM

SMILES: C=C1C(=O)O[C@@H]2C[C@@H](C)/C=C\C(=O)[C@](C)(OC(C)=O)C[C@H](OC(=O)/C(C)=C\C)[C@@H]12
- GI50: 1.01 µM
- TGI: 5.08 µM

SMILES: O=C1Cc2cc(CCn3ccnc3)c(Cl)cc2N1
- GI50: 2.74 µM
- TGI: 11.3 µM

SMILES: O=C(N[C@H](c1ccc(Cl)c(Cl)c1)C1CNC1)c1ccc2cnccc2c1
- GI50: 1.85 µM
- TGI: 10.4 µM

SMILES: CCCCCCN(CCCCCC)CCCNc1nccc2ccccc12
- GI50: 1.34 µM
- TGI: 2.91 µM

SMILES: CC/C(=N\Nc1nc2ccccc2n1C)c1ccccn1
- GI50: 0.0284 µM
- TGI: 0.207 µM

SMILES: c1cncc(CNc2ccccc2-c2nnc(Nc3ccc4c(c3)OCO4)o2)c1
- GI50: 0.153 µM
- TGI: > 100 µM

SMILES: Cn1cc(-c2csc(-c3c[nH]c4ncccc34)n2)c2cc(Br)cnc21
- GI50: 0.812 µM
- TGI: 56.7 µM

SMILES: CCCNc1nc(N(C)O)nc(N(C)O)n1
- GI50: 2.75 µM
- TGI: > 70.7 µM

SMILES: CCCc1cc(=O)oc2c(C(=O)CC(C)C)c(O)c(CC=C(C)C)c(O)c12
- GI50: 3.72 µM
- TGI: 27 µM

SMILES: COC(=O)[C@]12CC[C@@H](C)[C@H](C)[C@@H]1C1=CC[C@@H]3[C@@]4(C)C[C@@H](OC(=O)c5ccco5)[C@H](O)[C@@](C)(CO)[C@@H]4[C@H](O)C[C@@]3(C)[C@]1(C)CC2
- GI50: 2.34 µM
- TGI: 6.54 µM

SMILES: CN(C)CC(C(=O)c1ccccc1)c1ccccc1 (centres undefined)
- GI50: 0.95 µM
- TGI: 2.63 µM

SMILES: CCOc1ccc(Cc2nccc3cc(OCC)c(OCC)cc23)cc1OCC
- GI50: 2.29 µM
- TGI: 18.3 µM

SMILES: CCc1nn2c(C)cc(C)nc2c1Cc1ccc(/C=C/CN2CCN(CCOCCOCCN3CCN(C/C=C/c4ccc(Cc5c(CC)nn6c(C)cc(C)nc56)cc4)CC3)CC2)cc1
- GI50: 1.79 µM
- TGI: 3.81 µM

SMILES: CCN1CCC[C@H]1c1cc(O)c2c(c1OC)C[C@H]1C[C@H]3[C@H](N)C(=O)C(C(N)=O)=C(O)[C@@]3(O)C(=O)C1=C2O
- GI50: 0.0446 µM
- TGI: 0.717 µM

SMILES: O=C(Nc1cccc(Cl)c1)Nc1cccc(Cl)c1
- GI50: 0.0456 µM
- TGI: 43.6 µM

SMILES: O=C1NC(=NCC(CO)c2ccccc2)S/C1=C\c1ccc2ncccc2c1 (centres undefined)
- GI50: 8.8 µM
- TGI: > 25 µM

SMILES: COc1cc(CNC(=O)/C=C/C=C/c2ccc3c(c2)OCO3)ccc1OCc1cn(-c2ccc(Cl)c(Cl)c2)nn1
- GI50: 0.788 µM
- TGI: 2.46 µM

SMILES: CC(C)=CC/C=C(/C)[C@H]1CC[C@]2(C)[C@@H]1CC[C@@H]1[C@@]3(C)CCC(=O)NC(C)(C)[C@@H]3CC[C@]12C
- GI50: 16.5 µM
- TGI: 34.2 µM

SMILES: C=CCN1C(=O)/C(=c2\sc3n(c2=O)C2C(NN=3)N(CC)C(=O)N2CC)c2ccccc21 (centres undefined)
- GI50: 0.293 µM
- TGI: 3.75 µM

SMILES: COc1ccc(CN2c3ccccc3Sc3ccccc32)cc1F
- GI50: 0.309 µM
- TGI: 53.4 µM

SMILES: COc1cc2c(cc1OC)C(CCc1ccc(Cl)cc1)N(C)CC2 (centres undefined)
- GI50: 16.3 µM
- TGI: 38.1 µM

SMILES: Oc1nc(NCCc2ccccc2)sc1/C=C1\C=Nc2ncccc21
- GI50: 1.51 µM and 2.05 µM
- TGI: 3.6 µM and 6.37 µM

SMILES: Nc1nc(N)c2cc(CNc3ccc(Cl)c(Cl)c3)ccc2n1
- GI50: 0.903 µM
- TGI: 2.19 µM

SMILES: COc1cc(/C=C/C(=O)C(=Cc2ccc(F)c(F)c2)C(=O)/C=C/c2ccc(O)c(OC)c2)ccc1O
- GI50: 1.7 µM
- TGI: 3.47 µM

SMILES: CCN1CCN(CCOc2ccc(CNc3ccc4nc(CCC5CCCCC5)[nH]c4c3)cc2)CC1
- GI50: 1.67 µM
- TGI: 4.11 µM
